Measured values published in paper PMC7753999, “Molecular docking‐assisted screening reveals tannic acid as a natural protein disulphide isomerase inhibitor with antiplatelet and antithrombotic activities” (Journal of Cellular and Molecular Medicine, 2020).

Legend:
ERp57 = molecular target: T1, ERp57 (Homo sapiens, UniProt P30101); assay: Di-E-GSSG fluorescence reductase assay, recombinant enzyme […]; format: biochemical
T1 construct: gene PDIA3
T1 sequence (P30101 25-505): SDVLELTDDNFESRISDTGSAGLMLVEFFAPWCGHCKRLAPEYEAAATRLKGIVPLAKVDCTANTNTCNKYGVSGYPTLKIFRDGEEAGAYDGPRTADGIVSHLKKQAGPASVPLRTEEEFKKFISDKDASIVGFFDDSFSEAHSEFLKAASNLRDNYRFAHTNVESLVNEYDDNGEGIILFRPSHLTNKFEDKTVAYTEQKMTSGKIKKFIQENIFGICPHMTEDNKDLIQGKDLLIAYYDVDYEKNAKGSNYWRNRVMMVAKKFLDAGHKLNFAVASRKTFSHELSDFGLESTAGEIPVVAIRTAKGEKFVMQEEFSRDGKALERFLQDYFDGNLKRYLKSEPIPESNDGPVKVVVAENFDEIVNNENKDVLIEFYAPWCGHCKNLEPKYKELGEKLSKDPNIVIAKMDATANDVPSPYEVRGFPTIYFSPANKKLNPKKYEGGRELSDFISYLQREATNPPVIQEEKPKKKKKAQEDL

[1] = molecular target: T2, Protein disulphide isomerase (PDI) (Homo sapiens, UniProt P07237); assay: SPR with immobilized recombinant human PDI; also inhibits in Di-E-GSSG reductase and insulin reduction assays; format: binding
T2 construct: gene P4HB
T2 sequence (P07237 18-508): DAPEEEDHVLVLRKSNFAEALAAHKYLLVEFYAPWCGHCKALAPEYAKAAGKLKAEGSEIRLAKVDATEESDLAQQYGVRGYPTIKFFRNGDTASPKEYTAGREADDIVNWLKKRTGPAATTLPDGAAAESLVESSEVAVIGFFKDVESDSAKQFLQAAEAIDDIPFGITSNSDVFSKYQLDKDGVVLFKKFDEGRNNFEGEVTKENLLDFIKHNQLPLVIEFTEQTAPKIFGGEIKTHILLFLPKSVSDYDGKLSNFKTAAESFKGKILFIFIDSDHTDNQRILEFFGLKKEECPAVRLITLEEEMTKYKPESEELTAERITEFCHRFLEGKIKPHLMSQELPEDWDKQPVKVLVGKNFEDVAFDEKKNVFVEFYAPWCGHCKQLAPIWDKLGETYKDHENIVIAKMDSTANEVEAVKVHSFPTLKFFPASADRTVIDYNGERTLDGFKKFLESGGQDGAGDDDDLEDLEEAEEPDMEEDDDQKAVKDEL

ERp72 = molecular target: T3, ERp72 (Homo sapiens, UniProt P13667); assay: Di-E-GSSG fluorescence reductase assay, recombinant enzyme […]; format: biochemical
T3 construct: gene PDIA4
T3 sequence (P13667 21-645): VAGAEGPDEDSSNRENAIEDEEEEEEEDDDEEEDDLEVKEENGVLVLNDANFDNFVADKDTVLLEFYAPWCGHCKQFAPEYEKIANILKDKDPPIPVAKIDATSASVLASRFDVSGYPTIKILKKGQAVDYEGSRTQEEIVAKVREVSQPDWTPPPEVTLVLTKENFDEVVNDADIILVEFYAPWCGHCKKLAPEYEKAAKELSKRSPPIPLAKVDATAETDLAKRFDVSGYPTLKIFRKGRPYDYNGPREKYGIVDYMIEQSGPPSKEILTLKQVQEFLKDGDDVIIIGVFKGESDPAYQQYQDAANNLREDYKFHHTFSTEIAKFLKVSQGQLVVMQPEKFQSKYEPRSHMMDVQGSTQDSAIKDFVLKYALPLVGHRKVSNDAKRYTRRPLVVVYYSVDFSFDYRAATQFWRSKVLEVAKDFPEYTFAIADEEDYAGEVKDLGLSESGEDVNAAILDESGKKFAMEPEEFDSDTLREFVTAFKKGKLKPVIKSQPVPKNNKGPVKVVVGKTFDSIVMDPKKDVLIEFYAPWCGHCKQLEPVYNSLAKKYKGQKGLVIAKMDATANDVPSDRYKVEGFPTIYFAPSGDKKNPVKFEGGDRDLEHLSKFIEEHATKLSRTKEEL

## O=C(OC[C@H]1O[C@@H](OC(=O)c2cc(O)c(O)c(OC(=O)c3cc(O)c(O)c(O)c3)c2)[C@H](OC(=O)c2cc(O)c(O)c(OC(=O)c3cc(O)c(O)c(O)c3)c2)[C@@H](OC(=O)c2cc(O)c(O)c(OC(=O)c3cc(O)c(O)c(O)c3)c2)[C@@H]1OC(=O)c1cc(O)c(O)c(OC(=O)c2cc(O)c(O)c(O)c2)c1)c1cc(O)c(O)c(OC(=O)c2cc(O)c(O)c(O)c2)c1 [TA, Tannic acid]
ERp57
  Di-E-GSSG fluorescence reductase assay, recombinant enzyme 20 nmol/L: TA impaired the reductase activity of other platelet PDI family members ERP57 and ERP72
[1]
  Kd: < 1.68 nM
ERp72
  Di-E-GSSG fluorescence reductase assay, recombinant enzyme 20 nmol/L: TA impaired the reductase activity of other platelet PDI family members ERP57 and ERP72
